Consider three molecules from paper PMC5624969, “Coupled reactions by coupled enzymes: alcohol to lactone cascade with alcohol dehydrogenase–cyclohexanone monooxygenase fusions” (Applied Microbiology and Biotechnology, 2017).

Test [1] concerns the target T1, TmCHMO (Thermocrispum municipale, UniProt A0A1L1QK40).
T1 construct: recombinant from E. coli, gene from pBAD-His-Tag-SUMO-TmCHMO
T1 sequence (A0A1L1QK40 1-541): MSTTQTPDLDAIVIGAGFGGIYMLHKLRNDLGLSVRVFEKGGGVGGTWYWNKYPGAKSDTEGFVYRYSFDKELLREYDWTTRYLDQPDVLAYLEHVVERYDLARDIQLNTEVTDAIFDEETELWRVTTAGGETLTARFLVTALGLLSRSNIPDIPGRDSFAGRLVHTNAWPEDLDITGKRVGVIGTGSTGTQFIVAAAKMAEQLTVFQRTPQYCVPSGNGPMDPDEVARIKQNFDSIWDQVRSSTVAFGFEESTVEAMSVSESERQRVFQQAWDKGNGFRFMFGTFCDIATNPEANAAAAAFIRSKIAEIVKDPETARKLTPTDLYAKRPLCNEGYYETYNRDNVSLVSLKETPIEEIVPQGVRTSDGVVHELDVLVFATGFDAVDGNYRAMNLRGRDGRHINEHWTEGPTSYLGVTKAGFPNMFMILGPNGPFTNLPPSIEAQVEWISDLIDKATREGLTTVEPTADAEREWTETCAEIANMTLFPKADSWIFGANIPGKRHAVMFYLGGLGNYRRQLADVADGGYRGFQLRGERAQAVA
The experiment in a line: ThermoFAD, release of FAD on unfolding. It counts as binding. To be noted: 10 uM enzyme, +0.5 °C/min.

The target in test [2] is T1, TmCHMO. The experiment in a line: inhibition of thioanisole oxidation, NADPH depletion at […] nm. Conditions: read-out: K I (estimated). The test is classed as biochemical.
Test [3] addresses T1, TmCHMO. The test is described as above. The test is classed as biochemical. To be noted: read-out: 50% reduction of activity.

With `Cc1cc2nc3c(=O)[nH]c(=O)nc-3n(C[C@H](O)[C@H](O)[C@H](O)COP(=O)(O)OP(=O)(O)OC[C@H]3O[C@@H](n4cnc5c(N)ncnc54)[C@H](O)[C@@H]3O)c2cc1C` [FAD], the “ThermoFAD, release of FAD on unfolding” value on TmCHMO [1] was “the release of the FAD from TmCHMO upon unfolding could be detected”. With `OC1CCCCC1` [cyclohexanol], the Ki at TmCHMO [2] was under 2 mM.

For `O=C1CCCCCO1` [ε-caprolactone], the IC50 on TmCHMO [3] turned out to be 66 mM.
